For 7 cell lines, relative viability results are on record in the supplement of paper PMC10307832.

What all share (test): relative viability (nuclei count vs DMSO), 5 days (fraction); higher = more cells survive
Compound in one experiment: O=C(c1cc(Cc2n[nH]c(=O)c3ccccc23)ccc1F)N1CCN(C(=O)C2CC2)CC1 [Olaparib]
The gist of the method: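 Viability is treated-well nuclei as a fraction of vehicle-well nuclei, reported as the median across plates. Before counting, lung cancer cell lines were kept overnight at 37 °C in 1536-well plates, pinned with five √10-spaced library-drug doses on vehicle-anchored plates, and left 5 days without medium change, then fixed, permeabilised and Hoechst-stained in one step, imaged at 4× and counted by MetaXpress. A plate passed only if control CV was below 25% and at least one doubling occurred.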

Compound in the experiment “Crizotinib + Linsitinib”: C[C@@H](Oc1cc(-c2cnn(C3CCNCC3)c2)cnc1N)c1c(Cl)ccc(F)c1Cl [Crizotinib] + C[C@]1(O)C[C@@H](c2nc(-c3ccc4ccc(-c5ccccc5)nc4c3)c3c(N)nccn32)C1 [Linsitinib] (partner 1 µM)
The gist of the method: (§1)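 The day after seeding in 1536-well plates, lung cancer cell lines were treated by pin tool with a single drug, or with a fixed anchor-drug dose together with five library-drug doses (not always all listed) in √10 steps. After 5 days, a combined fix-and-stain solution (final 0.05% Triton X-100, 1% formaldehyde, 1 ug/ml Hoechst) was added. Nuclei counted on 4× images gave relative viability as treated counts over vehicle counts, reported as the median of duplicate plates.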

Compound in the experiment “Crizotinib + Bortezomib”: C[C@@H](Oc1cc(-c2cnn(C3CCNCC3)c2)cnc1N)c1c(Cl)ccc(F)c1Cl [Crizotinib] + CC(C)C[C@H](NC(=O)[C@H](Cc1ccccc1)NC(=O)c1cnccn1)B(O)O [Bortezomib] (partner 0.002 µM)
In a few lines: as §1

Regarding NCI-H838, the relative viability with Olaparib (0.08 µM) came to 1.02; with Olaparib (0.253 µM), 0.903; in the experiment with Olaparib (2.53 µM), 0.955; in the experiment with Olaparib (8 µM) it was 0.945; in the experiment with Olaparib (8 µM, anchor plate) it was 0.767; with Crizotinib + Linsitinib (first compound 0.01 µM) it was 0.938. The relative viability in the experiment with Crizotinib + Linsitinib (first compound 0.03162 µM) was determined as 1.05; with Crizotinib + Linsitinib (first compound 0.3162 µM) it was 0.882; with Crizotinib + Linsitinib (first compound 1 µM) it was 1.01; with Crizotinib + Bortezomib (first compound 0.01 µM) it was 0.806; with Crizotinib + Bortezomib (first compound 0.03162 µM), 0.695; in the experiment with Crizotinib + Bortezomib (first compound 0.1 µM), 0.968. Also, in the experiment with Crizotinib + Bortezomib (first compound 0.3162 µM), the relative viability was determined as 0.863.

Regarding NCI-H1299, the relative viability came to 1.08 in the experiment with Olaparib (0.08 µM); 0.981 with Olaparib (0.253 µM); 1.01 with Olaparib (2.53 µM); 0.995 with Olaparib (8 µM); 0.968 with Olaparib (8 µM, anchor plate); 0.988 with Crizotinib + Linsitinib (first compound 0.01 µM). Also, the relative viability was 0.992 with Crizotinib + Linsitinib (first compound 0.03162 µM); 1.02 with Crizotinib + Linsitinib (first compound 0.1 µM); 0.99 with Crizotinib + Linsitinib (first compound 0.3162 µM); 0.984 in the experiment with Crizotinib + Linsitinib (first compound 1 µM); 1.04 with Crizotinib + Bortezomib (first compound 0.01 µM); 1.07 in the experiment with Crizotinib + Bortezomib (first compound 0.03162 µM). For the same cell line, the results for the relative viability with Crizotinib + Bortezomib (first compound 0.1 µM), with Crizotinib + Bortezomib (first compound 0.3162 µM) and in the experiment with Crizotinib + Bortezomib (first compound 1 µM) were 1, 1.02 and 0.996, respectively.

For NCI-H1355, the relative viability with Olaparib (0.08 µM) was 1.02; with Olaparib (0.253 µM), 0.962; with Olaparib (2.53 µM), 0.981; with Olaparib (8 µM) it was 0.91; with Olaparib (8 µM, anchor plate) it was 0.754; with Crizotinib + Linsitinib (first compound 0.01 µM), 0.869. Further, the relative viability with Crizotinib + Linsitinib (first compound 0.03162 µM) was found to be 0.82; with Crizotinib + Linsitinib (first compound 0.1 µM) it was 0.811; with Crizotinib + Linsitinib (first compound 0.3162 µM), 0.799; with Crizotinib + Linsitinib (first compound 1 µM), 0.867; with Crizotinib + Bortezomib (first compound 0.01 µM), 1.23; with Crizotinib + Bortezomib (first compound 0.03162 µM), 1.21. For the same cell line, the results for the relative viability with Crizotinib + Bortezomib (first compound 0.1 µM), with Crizotinib + Bortezomib (first compound 0.3162 µM) and with Crizotinib + Bortezomib (first compound 1 µM) were 1.22, 1.1 and 1.24, respectively.

For NCI-H1437, the relative viability with Olaparib (0.08 µM) was 1.02; in the experiment with Olaparib (0.253 µM) it was 0.873; with Olaparib (2.53 µM), 0.927; with Olaparib (8 µM) it was 0.814; with Olaparib (8 µM, anchor plate), 0.617; with Crizotinib + Linsitinib (first compound 0.01 µM), 0.996. Moreover, the relative viability came out at 1.03 with Crizotinib + Linsitinib (first compound 0.1 µM); 0.996 in the experiment with Crizotinib + Linsitinib (first compound 0.3162 µM); 1.04 in the experiment with Crizotinib + Linsitinib (first compound 1 µM); 0.48 in the experiment with Crizotinib + Bortezomib (first compound 0.01 µM); 0.553 with Crizotinib + Bortezomib (first compound 0.03162 µM); 0.558 with Crizotinib + Bortezomib (first compound 0.1 µM). Moreover, the relative viability with Crizotinib + Bortezomib (first compound 0.3162 µM) was found to be 0.434; with Crizotinib + Bortezomib (first compound 1 µM), 0.494.

Take NCI-H1563: the relative viability in the experiment with Olaparib (0.08 µM) turned out to be 1.16; with Olaparib (0.253 µM), 0.902; with Olaparib (2.53 µM), 1.01; in the experiment with Olaparib (8 µM), 0.912; with Crizotinib + Linsitinib (first compound 0.01 µM) it was 1.18; with Crizotinib + Linsitinib (first compound 0.03162 µM), 1.12. Moreover, the relative viability stood at 1.22 with Crizotinib + Linsitinib (first compound 0.1 µM); 1.3 with Crizotinib + Linsitinib (first compound 0.3162 µM); 1.27 with Crizotinib + Linsitinib (first compound 1 µM); 0.744 in the experiment with Crizotinib + Bortezomib (first compound 0.01 µM); 0.859 with Crizotinib + Bortezomib (first compound 0.03162 µM); 0.857 in the experiment with Crizotinib + Bortezomib (first compound 0.1 µM). Besides, the results for the relative viability with Crizotinib + Bortezomib (first compound 0.3162 µM) and in the experiment with Crizotinib + Bortezomib (first compound 1 µM) were 0.779 and 0.832, respectively.

In the case of NCI-H1651, the relative viability turned out to be 0.934 in the experiment with Olaparib (0.08 µM); 0.902 with Olaparib (0.253 µM); 0.755 in the experiment with Olaparib (2.53 µM); 0.494 with Olaparib (8 µM); 0.188 with Olaparib (8 µM, anchor plate); 1.01 with Crizotinib + Linsitinib (first compound 0.01 µM). Moreover, the relative viability in the experiment with Crizotinib + Linsitinib (first compound 0.03162 µM) worked out at 1.01; with Crizotinib + Linsitinib (first compound 0.1 µM), 0.955; with Crizotinib + Linsitinib (first compound 0.3162 µM), 1.06; with Crizotinib + Linsitinib (first compound 1 µM), 1.07; with Crizotinib + Bortezomib (first compound 0.01 µM), 0.93; with Crizotinib + Bortezomib (first compound 0.03162 µM) it was 0.979. Besides, the results for the relative viability with Crizotinib + Bortezomib (first compound 0.1 µM), with Crizotinib + Bortezomib (first compound 0.3162 µM) and with Crizotinib + Bortezomib (first compound 1 µM) were 0.939, 0.815 and 0.924, respectively.

With NCI-H1666, the relative viability with Olaparib (0.08 µM) is 0.985; with Olaparib (0.253 µM) it was 0.916; with Olaparib (2.53 µM), 0.821; with Olaparib (8 µM), 0.838; in the experiment with Olaparib (8 µM, anchor plate), 0.738; with Crizotinib + Linsitinib (first compound 0.01 µM), 0.825. The relative viability amounted to 0.877 with Crizotinib + Linsitinib (first compound 0.03162 µM); 0.774 with Crizotinib + Linsitinib (first compound 0.1 µM); 0.871 with Crizotinib + Linsitinib (first compound 0.3162 µM); 0.665 in the experiment with Crizotinib + Linsitinib (first compound 1 µM); 0.791 with Crizotinib + Bortezomib (first compound 0.01 µM); 0.981 with Crizotinib + Bortezomib (first compound 0.03162 µM). Also, the figures for the relative viability with Crizotinib + Bortezomib (first compound 0.1 µM), with Crizotinib + Bortezomib (first compound 0.3162 µM) and with Crizotinib + Bortezomib (first compound 1 µM) were 0.829, 0.796 and 0.912, respectively.
